# Entries after “also recorded” stand apart in the source; their conditions may differ. Read-outs that look alike come from different tables or passages of the source.
# Legend:
# HIV-1 [1] = experiment: Inhibition of HIV-1 giant cell formation in CEM cells; format: cell-based
# Description: (§1) Then 100 μL of the infected cell suspension was transferred to microtiter plate wells and mixed with 100 μL of the appropriate dilutions of the test compounds.
# HIV 1 CEM: EC50 in μM for inhibition of HIV1 in CEM cells
# HIV-2 [2] = experiment: Inhibition of HIV-2 giant cell formation in CEM cells; format: cell-based
# Description: as §1
# HIV1 CEM: EC50 in μM for inhibition of […] in CEM cells.
# HIV2 CEM: EC50 in μM for inhibition of HIV-2 in CEM cells
# CEM cells [3] = experiment: Toxicity to mock-infected CEM cells (CC50); format: cell-based
# Description: as §1
# (§2) CC50 CEM: CC50 in μM for toxicity to CEM cells.
# (§3) CC50 CEM: CC50 μM for toxicity to CEM cells
# MSV [4] = experiment: Inhibition of MSV; format: cell-based; settings: Table III; inhibition of MSV; read-out: EC50 MSV
# Description: EC50 MSV: EC50 μM for inhibition of MSV
# MSV [5] = experiment: Minimum cytotoxic concentration in MSV assay; format: cell-based; parameters: unit not given here; settings: Table III
# Source text: MCC MSV: minimum cytotoxic concentration in MSV essay.
# HIV-1 [6] = experiment: Inhibition of HIV-1 giant cell formation in CEM cells; format: cell-based; settings: mean increase in potency of phosphoramidate versus its parent nucleoside for HIV 1 and HIV 2
# HIV-2 [7] = settings: Table II, known data disclosed in PCT/GB96/00580; read-out: EC50/μM HIV-2 CEM; cited from earlier work
# HIV-1 [8] = settings: read-out: EC50/μM HIV-1 CEM; Table II, known data disclosed in PCT/GB96/00580; cited from earlier work
# CEM cells [9] = settings: cited from earlier work
# HIV-2 [10] = experiment: Inhibition of HIV-2 in CEM.TK- cells; format: cell-based; settings: Human immunodeficiency virus 2, CEM-TK(-), read-out: HIV2 CEM. TK.
# Description: Cells were infected with HIV-1 as previously described [Balzarini et al. AIDS (1991), 5, 21-28]. Briefly, 5×10^5 cells per milliliter were infected with HIV-1 or HV-2 at 100 CClD50 (50% cell culture infective dose) per milliliter of cell suspension. Then 100 μL of the infected cell suspension was transferred to microtiter plate wells and mixed with 100 μL of the appropriate dilutions of the test compounds. After 4 days giant cell formation was recorded microscopically in the HIV-infected cell cultures [CEM].
# HIV2CEM.TK- EC50 μM for inhibition of IV-2 in CEM=cells
# [11] = Toxicity to mock-infected CEM cells (CC50); format: cell-based; settings: human
# Description: as §1, §2, §3
# [12] = Solution stability of salt forms; format: physicochemical; settings: % of parent (AUC) after 27 hr at room temperature
# Source text: (§4) The solubility and solution/solid state stability of three salt forms of (1S, 4R)-4-[2-amino-5(cyclopropylamino)-9(H)-purin-9-yl]-2-cyclopentene-1-methanol O-(phenyl ethoxy-L-alaninyl) phosphate
# [13] = Solid state stability of salt forms; format: physicochemical; settings: % of parent (AUC) after two weeks at 60° C.
# Source text: as §4
# Solid type of salt forms = format: physicochemical
# [14] = Acid stability, dilute HCl pH1, simulated stomach conditions; format: physicochemical; settings: 0.1N HCl pH1, 25° C.
# Description: Compounds were tested for their stability towards acid-mediated hydrolytic decomposition employing a test designed to simulate stomach conditions. Each compound was incubated in dilute HCl of pH1 for 24 hours at 25° C. 0.3 mg of compound were added to 1 mL of 0.1N HCl at 25° C. HPLC was run immediately for time=0 and at intervals up to approximately 24 hours.
# [15] = Biological stability in heparinised human plasma
# Description: (§5) Each compound was incubated in normal heparinised human plasma at 37° C. for 4 hours. […] Drug concentrations were then determined by LC/MS/MS analysis using standard methods.
# [16] = human, plasma
# Description: as §5
# [17] = Table III, EC50 for inhibition of HIV-2 in CEM cells, read-out: HIV2 CBM
# [18] = Human immunodeficiency virus 1, CCRF-CEM, Table III, EC50 for inhibition of HIV1 in CEM cells, read-out: HIV1 CBM
# [19] = Human immunodeficiency virus 2, CCRF-CEM, Table III, EC50 for inhibition of HIV-2 in CEM cells, read-out: HIV2 CBM
# [20] = Table III, toxicity to CEM cells, read-out: CC50 CEN
# [21] = heparinised human plasma, 37° C.
structure (smiles),measurement,setting,value
"COC(=O)[C@H](C)NP(=O)(OC[C@@H]1C=C[C@H](n2cnc3c(NC4CC4)nc(N)nc32)C1)Oc1ccccc1 (stereo partly drawn) [Compound 1490, (1S,4R)-4-(2-amino-6-cyclopropylamino-9H-purin-9-yl)-2-cyclopentene-1-methanol O-[phenyl-(methoxy-L-alaninyl)]-phosphate]",EC50,"HIV-1 [1]; CEM cells, giant cell formation after 4 days, Tables I and II, read-out: EC50/μM HIV-1 CEM",0.07 µM
same,EC50,"HIV-2 [2]; CEM cells, giant cell formation after 4 days, Tables I and II, read-out: EC50/μM HIV-2 CEM",0.09 µM
same,EC50,HIV-2 [2]; [17],0.05 µM
same,CC50,CEM cells [3],13.1 µM
same,EC50,MSV [4],1.6 µM
same,MCCMSV,MSV [5],>4
same,Fold Improvement,HIV-1 [6],30.2
"CCOC(=O)[C@H](C)NP(=O)(OC[C@@H]1C=C[C@H](n2cc(C)c(=O)[nH]c2=O)O1)Oc1ccccc1 (stereo partly drawn) [Compound 951, 2′, 3′-dideoxy-2′, 3′-didehydrothymidine 5′-(phenylexthoxyalaninyl) phosphoramidate]",EC50,HIV-2 [7],0.07 µM
same,EC50,HIV-1 [8],0.1 µM
same,CC50,CEM cells [9],5.5 µM
"C[C@H](NP(=O)(OC[C@@H]1C=CC(n2cnc3c(NC4CC4)nc(N)nc32)C1)Oc1ccccc1)C(=O)OCCC(C)(C)C (stereo partly drawn) [Compound 1687, (1S,4R)-4-(2-amino6cyclopropylamino-9H-purin-9-yl)-2-cyclopentene-1-methanol O-[phenyl(3,3-dimethyl-]-butoxy-L-alaninyl)phosphate]",EC50,HIV-1 [1]; [18],0.2 µM
same,EC50,HIV-2 [2]; [19],0.2 µM
same,EC50,HIV-2 [10],0.14 µM
same,CC50,[11]; [20],10.2 µM
same,EC50,MSV [4],2.22 µM
same,MCCMSV,MSV [5],>4
"CCOC(=O)[C@H](C)NP(=O)(OC[C@@H]1C=C[C@H](n2cnc3c(NC4CC4)nc(N)nc32)C1)Oc1ccccc1.O=C(O)/C=C/C(=O)O (stereo partly drawn) [Example 3, (1S,4R)-4-(2-Amino-6cyclopropylamino-9(H)-purin-9-yl)-2-cyclopentene-1-methanol O-(phenylethoxy-L-alaninyl) phosphate Fumarate Salt]",Stability (%) 0.1 N HCl,[12],70.0%
same,Stability (%) HPMC/Tween,[12],98.3%
same,Stability (%) PBS,[12],98.5%
same,Solid State Stability (%),[13],97.1%
same,Solid Type,Solid type of salt forms,crystals
COC(=O)C(NP(=O)(OC[C@@H]1C=CC(n2cnc3c(NC4CC4)nc(N)nc32)C1)Oc1ccccc1)C(C)C (stereo partly drawn) [Compound 1666],EC50,HIV-1 [1]; [18],3.5 µM
same,EC50,HIV-2 [2]; [19],4 µM
same,EC50,HIV-2 [10],3.5 µM
same,CC50,[11]; [20],54.1 µM
same,EC50,MSV [4],11.8 µM
same,MCCMSV,MSV [5],>20
"COC(=O)C[C@H](NP(=O)(OC[C@@H]1C=C[C@H](n2cc(C)c(=O)[nH]c2=O)O1)Oc1ccccc1)C(=O)OC (stereo partly drawn) [Compound 1078, 2′, 3′-dideoxy-2′, 3′-didehydrothymidine 5′-(phenyldimethoxyaspartyl) phosphoramidate]",EC50,HIV-2 [7],0.65 µM
same,EC50,HIV-1 [8],0.55 µM
same,CC50,CEM cells [9],209 µM
"CCOC(=O)[C@H](C)NP(=O)(OC[C@@H]1C=C[C@H](n2cnc3c(NC4CC4)nc(N)nc32)C1)Oc1ccccc1 (stereo partly drawn) [Compound 1587, (1S,4R)-4-(2-amino-6cyclopropylamino-9H-purin-9-yl)-2-cyclopentene-1-methaanol O-[phenyl-(ethoxy-L-alaninyl)]-phosphate]",EC50,"HIV-1 [1]; Table III, EC50 for inhibition of HIV1 in CEM cells, read-out: HIV1 CBM",0.07 µM
same,EC50,HIV-2 [2]; [17],0.06 µM
same,CC50,CEM cells [3]; [20],12.1 µM
same,acid stability in words,[14]; after 22 hours,remained in tact
same,Compound left (%),[14]; time 0 hr,100%
same,Compound left (%),[14]; time 22 hr,77%
same,Stability (%) 0.1 N HCl,[12],69.1%
same,Stability (%) HPMC/Tween,[12],97.6%
same,Stability (%) PBS,[12],98.5%
same,Solid State Stability (%),[13],93.7%
same,Solid Type,Solid type of salt forms,Amorphous; also recorded: Hygroscopic
same,Half-life,[15]; [21],26 h
same,% Remaining at 4 hours,"[15]; heparinised human plasma, 37° C., 4 hours",91%
same,stability advantage over each of compounds 1001 and 1093,"[15]; human plasma, Table V data",6 fold
"COC(=O)C(C)NP(=O)(OC[C@@H]1CC[C@H](n2cnc3c(N)ncnc32)O1)Oc1ccccc1 (stereo partly drawn) [Compound 1093, 2′, 3′-dideoxy adenosine 5′-(phenylmethoxyalaninyl) phosphoramidate]",time to degradation in acid,[14],less than 13 hours
same,Compound left (%),[14]; time 0 hr,100%
same,Compound left (%),[14]; time 13 hr,0%
same,% Remaining at 4 hours,[16],50%
same,EC50,HIV-2 [7],0.035 µM
same,EC50,HIV-1 [8],0.016 µM
same,CC50,"CEM cells [9]; read-out: CC50/μM CEM, Table II, known data disclosed in PCT/GB96/00580",2.57 µM
same,Half-life,[15]; [21],4.2 h
"CCOC(=O)[C@H](C)NP(=O)(OC[C@@H]1C=C[C@H](n2cnc3c(NC4CC4)nc(N)nc32)C1)Oc1ccccc1.O=C(O)CCC(=O)O (stereo partly drawn) [Example 1, (1S,4R)-442-Amino-6-cyclopropylamino-9(purin-9-yl)-2-cyclopentene-1-methanol O-(phenylethoxy-L-alaninyl) phosphate Succinate Salt]",Stability (%) 0.1 N HCl,[12],66.0%
same,Stability (%) HPMC/Tween,[12],98.8%
same,Stability (%) PBS,[12],99.8%
same,Solid State Stability (%),[13],99.6%
same,Solid Type,Solid type of salt forms,crystals
"COC(=O)C(C)NP(=O)(OCC1C=CC(n2cnc3c(=O)[nH]c(N)nc32)C1)Oc1ccccc1 [Example A, (1R, 4S)-9-14-(hydroxymethyl)-2-cyclopenten-2-yl] guanine-5′-[phenyl-(methoxy-L-alaninyl)]-phosphate, reference compound]",EC50,"HIV-1 [1]; Human immunodeficiency virus 1, CCRF-CEM, 96 h, CEM cells, giant cell formation after 4 days, Tables I and II, read-out: EC50/μM HIV-1 CEM",1.3 µM
same,EC50,"HIV-2 [2]; Human immunodeficiency virus 2, CCRF-CEM, 96 h, CEM cells, giant cell formation after 4 days, Tables I and II, read-out: EC50/μM HIV-2 CEM",0.85 µM
same,CC50,"[11]; mock-infected CEM cells, Tables I and II, read-out: CC50/μM CEM",123 µM
same,Fold Improvement,HIV-1 [6],1.9
"CCOC(=O)[C@H](C)NP(=O)(OC[C@@H]1C=C[C@H](n2cnc3c(NC4CC4)nc(N)nc32)C1)Oc1ccccc1.O=C(O)CCCC(=O)O (stereo partly drawn) [Example 4, (1S,4R)-4-(2-Amino-6-cyclopropylamino-9(H)-purin-9-yl)-2-cyclopenten-1-methanol O-(phenylethoxy-L-alaninyl) phosphate Glutarate Salt]",Stability (%) 0.1 N HCl,[12],69.3%
same,Stability (%) HPMC/Tween,[12],98.6%
same,Stability (%) PBS,[12],99.9%
same,Solid State Stability (%),[13],98.9%
same,Solid Type,Solid type of salt forms,crystals
CCC(CC)OC(=O)[C@H](C)NP(=O)(OC[C@@H]1C=CC(n2cnc3c(NC4CC4)nc(N)nc32)C1)Oc1ccccc1 (stereo partly drawn) [Compound 1685],EC50,HIV-1 [1]; [18],1.6 µM
same,EC50,HIV-2 [2]; [19],2 µM
same,EC50,HIV-2 [10],12.5 µM
same,CC50,[11]; [20],19.7 µM
same,EC50,MSV [4],10.1 µM
same,MCCMSV,MSV [5],>20
